Experiments:
Format in all cases: cell-based, human
RPE cells [1] = assay: Proliferation of RPE cells by cell counting; conditions: 100-400 ng/ml
Method: (§1) FIG. 11. GRAND editing mediates precise large insertion in non-dividing cells. a, The proliferation of RPE cells at 6 h, 12 h, 24 h, 48 h after treated with 1 or 2.5 μM Palbociclib, or 100, 200, 400 ng/mL Nocodazole was determined by cell counting. b, The cell cycles of RPE cells were determined by propidium iodide staining. c, Detection of the nascent DNA synthesis in RPE cells by 5-ethynyl-2′-deoxyuridine (EdU) incorporation assay. The proportions of EdU-labeled positive cells were determined by flow cytometry. d, A 100 bp DNA fragment was inserted at EGFP (595-647) site in non-dividing RPE cells using GRAND editing. The accurate editing and imperfect events were quantified by deep sequencing. Mean±s.d. of n=3 independent biological replicates for a, b, d, and n=3-5 independent biological replicates for c.
(§2) To determine whether GRAND editing-mediated targeted insertion is cell cycle independent, we used small molecule drugs to arrest the cell cycle of human retinal pigment epithelium (RPE) cell line. Palbociclib, a Cdk4 and Cdk6 inhibitor, effectively arrests cells in G1 phase. […] Next, we conducted the GRAND editing on RPE cells with Palbociclib or Nocodazole treatment.

RPE cells [2] = assay: Cell cycle of RPE cells, propidium iodide staining, flow cytometry
Method: as §1, §2

RPE cells [3] = assay: EdU incorporation assay of nascent DNA synthesis in RPE cells
Method: as §1, §2

SMILES: COC(=O)Nc1nc2ccc(C(=O)c3cccs3)cc2[nH]1 [Nocodazole]
- growth of RPE cells (RPE cells [1]): fully inhibited
- cell cycle arrest (RPE cells [2]): arrest at G2 phase
- global DNA replication (EdU incorporation) (RPE cells [3]; at 24-48 hours): near fully inhibited replication
- global DNA replication (EdU incorporation) (RPE cells [3]; at 12 hours): significantly suppressed global DNA replication

Source: US20240247257A1, “SYSTEM AND METHODS FOR INSERTION AND EDITING OF LARGE NUCLEIC ACID FRAGMENTS” (WUHAN UNIVERSITY, priority 2021, published 2024)
